Reference: PMC9356275, “A quantitative high-throughput screen identifies compounds that lower expression of the SCA2-and ALS-associated gene ATXN2” (The Journal of Biological Chemistry, 2022)
Where a name gives a salt, the structure may show the parent alone. Read-outs that look alike come from different tables or passages of the source.

Tested on: ATXN2-luc
Assay: NCATS qHTS (LOPAC pilot, primary and confirmation): ATXN2-luc in S2 cells, 1536-well, Steady-Glo
Type: cell-based, human
Details: for Curve Class: LOPAC library (1,280 compounds) screening optimization, signed sub-classes (-1.1, -2.2, -3 ...)
Method: We next performed a pilot screen assay to optimize the 1536-well qHTS using S2 cells. […] Cytotoxicity was determined using a multiplexed viability assay (CellTiter-Fluor, a fluorescence-based viability assay using Gly-Phe-7-amino-4-trifluoromethylcoumarin substrate).
CellTiter-Fluor was used to determine compound effect on cell viability, and Steady-Glo was used to measure luciferase in a multiplexed assay.
The primary assay was conducted at the NCATS NIH Chemical Genomics Center laboratory. About 4 μl of S2 cell suspension in phenol red–free DMEM was dispensed into wells of 1536-well assay plates. […] Next, SteadyGlo luciferase substrate detection reagent (3 μl) was added to each well and incubated for an additional 5 min at room temperature. Luminescence was then measured on the ViewLux imager equipped with clear filters using a 2 s exposure. All screening operations were performed on a fully integrated robotic system (Kalypsys) containing one RX-130 and two RX-90 anthropomorphic robotic arms (Stäubli). Vehicle-only plates, with DMSO being pin-transferred to columns 5 to 48, were inserted uniformly at the beginning and the end of each library in order to monitor and record any shifts in assay performance.

[1] = Homo sapiens, LOPAC library screening optimization, logarithm of AC50 (negative values), read-out: Log AC50 (converted)
[2] = Homo sapiens, LOPAC library screening optimization, read-out: AC50
[3] = LOPAC library screening optimization, curve-fit parameter
[4] = LOPAC library screening optimization, logarithm of AC50 (negative values)
[5] = LOPAC library screening optimization, read-out: AC50

SMILES | AC50 [1] | AC50 [2] | Efficacy [3] | Inf Activity [3] | Curve Class | Log AC50 [4] | AC50 [5] | Hill Coef [3] | Zero Activity [3] | Max Resp (LOPAC library screening optimization, response at highest tested concentration)
CC(=O)O[C@H]1C[C@H](O[C@H]2[C@@H](O)C[C@H](O[C@H]3[C@@H](O)C[C@H](OC4CC[C@@]5(C)C(CC[C@@H]6[C@@H]5CC[C@]5(C)[C@@H](C7=CC(=O)OC7)[C@@H](O)C[C@]65O)C4)O[C@@H]3C)O[C@@H]2C)O[C@H](C)[C@H]1O[C@@H]1O[C@H](CO)[C@@H](O)[C@H](O)[C@H]1O (stereo partly drawn) [Lanatoside B] | 1.26 µM | 1.26 µM | -78.0523 | -90.3741 |  |  |  |  |  | 
CC[C@@H](O)C(C[C@@H](C)N(C)C)(c1ccccc1)c1ccccc1.Cl [(-)-alpha-Methadol hydrochloride] | 31.6 µM | 31.6 µM | -53.231 | -52.9785 |  |  |  |  |  | 
Br.COc1cc(CC(C)N)c(OC)cc1Br (stereo not drawn) | 15.8 µM | 15.8 µM | -57.1187 | -63.2991 | -2.4 |  |  |  |  | 
OC(CCN1CCCCC1)(c1ccccc1)C1CC2C=CC1C2 (stereo not drawn) [Biperiden hydrochloride] | 17.8 µM | 17.8 µM |  |  | -2.2 | -4.6 | 25.1 µM |  |  | 
CNCCC(Oc1ccc(C(F)(F)F)cc1)c1ccccc1 (stereo not drawn) [Fluoxetine hydrochloride] | 12.6 µM | 12.6 µM |  |  | -2.1 | -4.85 | 14.1 µM |  |  | 
CC(C)NC[C@@H](O)c1ccc(O)c(O)c1 [S(+)-Isoproterenol (+)-bitartrate] | 31.6 µM | 31.6 µM | -77.2877 | -79.7998 |  |  |  |  |  | 
C=C[C@H]1C[N@@]2CC[C@H]1C[C@H]2[C@H](O)c1ccnc2ccc(OC)cc12 [Quinine sulfate] | 35.5 µM | 35.5 µM | -70.489 | -66.665 |  |  |  |  |  | 
CC[C@H](O)C(C[C@H](C)N(C)C)(c1ccccc1)c1ccccc1.Cl [(+)-alpha-Methadol hydrochloride] | 35.5 µM | 35.5 µM | -65.8804 | -66.2609 |  |  |  |  |  | 
CNCCCN1c2ccccc2CCc2ccccc21 [Desipramine hydrochloride] | 12.6 µM | 12.6 µM |  |  | -2.2 | -4.85 | 14.1 µM |  |  | 
CC1CNCCN1[S+](=O)([O-])c1cccc2cnccc12 (stereo not drawn) | 22.4 µM | 22.4 µM |  |  |  |  |  |  |  | 
CCc1cccc(N(C)C(N)=Nc2cccc3ccccc23)c1 [CNS-1102] | 12.6 µM | 12.6 µM |  |  | -2.2 | -4.7 | 20 µM |  |  | 
CNCCC(Oc1ccc(C(F)(F)F)cc1)c1ccccc1.Cl (stereo not drawn) [MLS001076338-01] |  |  | -91.3933 | -89.6057 | -3 | -4.6 | 25.1 µM | 3.5722 | 1.7876 | -84.8539
Clc1ccc2c(c1)C(N1CCNCC1)=Nc1ccccc1O2 [Amoxapine] | 11.2 µM | 11.2 µM | -60.2873 | -56.594 | -2.2 |  |  |  |  | 
COc1cc(C[C@@H](C)N)c(OC)cc1Br.Cl | 39.8 µM | 39.8 µM | -71.0454 | -73.0357 |  |  |  |  |  | 
CNCC[C@H](Oc1ccc(C(F)(F)F)cc1)c1ccccc1 [S-(+)-Fluoxetine hydrochloride] | 14.1 µM | 14.1 µM |  |  | -2.2 | -4.8 | 15.8 µM |  |  | 
CNCCCC1c2ccccc2C=Cc2ccccc21 [Protriptyline hydrochloride] | 31.6 µM | 31.6 µM | -59.559 | -66.4303 |  |  |  |  |  | 
CC(C)NCC(O)COc1cccc2ccccc12 (racemic) [(±)-Propranolol hydrochloride] | 14.1 µM | 14.1 µM |  |  | -2.2 | -4.6 | 25.1 µM |  |  | 
